Data reported in patent publication US20110038885A1, “CHEMOKINE ANALOGS” (priority 2007, published 2011).
pEC50: −log10 of the molar value. Bridge positions count the residues as written; N and C are the ends. Square brackets hold non-standard residues; d marks the D form. Peptide text beside a SMILES is read from it. * marks the point of attachment. Octanoyl = CCCCCCCC(=O)*; Dab = NCC[C@H](N)C(=O)O; AEEA = NCCOCCOCC(=O)O; Aoc = NCCCCCCCC(=O)O; Ahx = NCCCCCC(=O)O

Columns and labels:
MCP-1 = assay: In vitro chemotaxis (trans-well migration) v MCP-1; type: cell-based, human
In short: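 Trans-well migration toward IL-8 or MCP-1 placed below, with agent added to THP-1 cells (10^4-10^6) in the top well and incubation at 37° C (e.g. 4 hours). MTT absorbance at 595 nm, interpolated on a cell standard curve, gives migrated cell numbers; TGFβ-type negative control and cytotoxicity check included.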

IL-8 = assay: In vitro chemotaxis, inhibition v IL-8; type: cell-based, human; set-up: concentration or dose not given beside the values
Description: To determine whether an agent inhibits a chemokine-induced activity, such as macrophage recruitment, varying amounts of the agent are mixed with cells in the presence of a known chemoattractant. For example, a range of known concentrations of an agent, e.g., a chemokine peptide, is incubated with a defined number (e.g., 10^4-10^6) of human THP-1 monocyte cells in individual wells of the top compartment of a trans-well plate. Chemokine, at a concentration known to cause significant migration of THP-1 cells in the trans-well migration assay, is placed in the lower compartment of a trans-well plate. Cells are then incubated at 37° C. for a period sufficient to allow migration, e.g., 4 hours. After incubation, the cells are gently removed from the top of the filter with a pipette, 20 μl of 20 mM EDTA in simple PBS is added into each top well, and incubated for 20 minutes at 4° C. The filter is carefully flushed with media using a gentle flow, and removed. A standard curve consisting of a two-fold dilution series of THP-1 cells (in 29 μl) is placed to accurately quantify the number of cells that have migrated. Migrated cells are stained with 3 μl of MTT stock dye solution which is added directly into each well (5 mg/ml in RPMI-1640 without phenol red) (Sigma Chemical Co., St. Louis, Mo., USA) and incubated at 37° C. for 4 hours. The media is carefully aspirated from each well, and the converted dye is solubilized by 20 μl of DMSO. Absorbance of converted dye is measured at a wavelength of 595 nm using an ELISA plate reader. The number of migrated cells in each well is then determined by interpolation of the standard curve (see also Imai et al., J. Biol. Chem., 272:15036, 1997). Any method suitable for counting cells can be used, for example, counting with a hemocytometer, incubation of the cells with MTT (see above), or FACS analysis. A negative control assay is also performed, using TGFβ or another non-chemokine chemoattractant (e.g., IL1β or TNFα). To assess whether the agent is cytotoxic, the same concentrations of agent are incubated with THP-1 cells. Agents which 1) are not cytotoxic at levels which inhibit migration, 2) are ineffective at inhibiting the negative control-induced migration, and 3) reduce or inhibit chemokine-induced THP-1 migration, are agents which fall within the scope of the invention.

| Structure (SMILES) | pEC50 (MCP-1) | v IL-8 inhibition (%) (IL-8) |
| --- | --- | --- |
| CC[C@H](C)[C@@H]1NC(=O)[C@H](Cc2c[nH]c3ccccc23)NC(=O)[C@H](CCCCN)NC(=O)[C@H](CCC(N)=O)NC(=O)[C@@H](N)CSSC[C@@H](C(N)=O)NC(=O)[C@H](CCC(N)=O)NC1=O [Example 50, c(Cys-Gln-Lys-Trp-Ile-Gln-Cys)-NH2] (H-CQKWIQC-NH2; disulfide 1-7) | 7.60 | 104.8 |
| CCCCCCCC(=O)NCCCC[C@H](NC(=O)[C@@H](CCC(=O)O)NC(=O)[C@H](NC(=O)[C@H]1CSSC[C@@H](N)C(=O)N[C@H](CCC(N)=O)C(=O)N[C@H]([C@H](C)CC)C(=O)N[C@H](Cc2c[nH]c3ccccc23)C(=O)N[C@H](CCCCN)C(=O)N[C@H](CCC(N)=O)C(=O)N[C@H](CCCCN)C(=O)N2CCC[C@@H]2C(=O)N[C@H](CC(=O)O)C(=O)N[C@H](CC(C)C)C(=O)N1)C(C)C)C(=O)O [Example 150, c(D-Cys-D-Gln-D-Ile-D-Trp-D-Lys-D-Gln-D-Lys-D-Pro-D-Asp-D-Leu-D-Cys)-D-Val-D-Glu-Lys(Nε-octanoyl)-OH] (H-[dC][dQ][dI][dW][dK][dQ][dK][dP][dD][dL][dC][dV][dE]K(Octanoyl)-OH; disulfide 1-11) | 7.48 | 100.5 |
| CC[C@H](C)[C@@H]1NC(=O)[C@H](Cc2c[nH]c3ccccc23)NC(=O)[C@H](CCCCN)NC(=O)[C@H](CCC(N)=O)NC(=O)[C@@H](NC(=O)[C@H](CCCCN)NC(=O)[C@@H]2CCCN2C(=O)[C@H](CC(=O)O)NC(=O)[C@H](CC(C)C)NC(C)=O)CSSC[C@@H](C(N)=O)NC(=O)[C@H](CCC(N)=O)NC1=O [Example 22, Ac-Leu-Asp-Pro-Lys-c(Cys-Gln-Lys-Trp-Ile-Gln-Cys)-NH2] (Ac-LDPKCQKWIQC-NH2; disulfide 5-11) | 6.05 | 16.8 |
| CC[C@H](C)[C@@H]1NC(=O)[C@H](Cc2c[nH]c3ccccc23)NC(=O)[C@H](CCCCN)NC(=O)[C@H](CCC(N)=O)NC(=O)[C@@H](NC(=O)[C@H](CCCCN)NC(=O)[C@@H]2CCCN2)CSSC[C@@H](C(N)=O)NC(=O)[C@H](CCC(N)=O)NC1=O [Example 44, Pro-Lys-c(Cys-Gln-Lys-Trp-Ile-Gln-Cys)-NH2] (H-PKCQKWIQC-NH2; disulfide 3-9) | 6.00 | 12.9 |
| CC[C@H](C)[C@@H]1NC(=O)[C@H](Cc2c[nH]c3ccccc23)NC(=O)[C@H](CCCCN)NC(=O)[C@@H](NC(=O)[C@H](CCC(N)=O)NC(=O)[C@H](CCCCN)NC(=O)[C@@H]2CCCN2C(=O)[C@H](CC(=O)O)NC(=O)[C@H](CC(C)C)NC(C)=O)CSSC[C@@H](C(N)=O)NC(=O)[C@H](CCC(N)=O)NC1=O [Example 23, Ac-Leu-Asp-Pro-Lys-Gln-c(Cys-Lys-Trp-Ile-Gln-Cys)-NH2] (Ac-LDPKQCKWIQC-NH2; disulfide 6-11) | < 6.00 | 13.4 |
| CC[C@H](C)[C@@H]1NC(=O)[C@H](Cc2c[nH]c3ccccc23)NC(=O)[C@H](CCCCN)NC(=O)[C@H](CCC(N)=O)NC(=O)[C@@H](NC(=O)[C@H](CCCCN)NC(=O)[C@@H]2CCCN2C(=O)[C@@H](N)CC(=O)O)CSSC[C@@H](C(N)=O)NC(=O)[C@H](CCC(N)=O)NC1=O [Example 41, Asp-Pro-Lys-c(Cys-Gln-Lys-Trp-Ile-Gln-Cys)-NH2] (H-DPKCQKWIQC-NH2; disulfide 4-10) | 7.10 | 67.8 |

Now from value to molecule, other results behind:

| pEC50 (MCP-1) | Structure (SMILES) | v IL-8 inhibition (%) (IL-8) |
| --- | --- | --- |
| 7.70 | CC[C@@H](C)[C@H]1NC(=O)[C@@H](CCC(N)=O)NC(=O)[C@H](N)CSSC[C@H](C(=O)NCCOCCOCC(=O)NCCCCCCCC(=O)O)NC(=O)[C@@H](CC(C)C)NC(=O)[C@@H](CC(=O)O)NC(=O)[C@H]2CCCN2C(=O)[C@@H](CCCCN)NC(=O)[C@@H](CCC(N)=O)NC(=O)[C@@H](CCCCN)NC(=O)[C@@H](Cc2c[nH]c3ccccc23)NC1=O [Example 138, c(D-Cys-D-Gln-D-Ile-D-Trp-D-Lys-D-Gln-D-Lys-D-Pro-D-Asp-D-Leu-D-Cys)-Doc-Aoc-OH] (H-[dC][dQ][dI][dW][dK][dQ][dK][dP][dD][dL][dC][AEEA][Aoc]-OH; disulfide 1-11) | 98.4 |
| 8.00 | CC[C@H](C)[C@@H]1NC(=O)[C@H](Cc2c[nH]c3ccccc23)NC(=O)[C@H](CCCCN)NC(=O)[C@H](CCC(N)=O)NC(=O)[C@H](CCCCN)NC(=O)[C@@H]2CCCN2C(=O)[C@H](CC(=O)O)NC(=O)[C@@H](NC(=O)[C@@H](N)CC(C)C)CSSC[C@@H](C(N)=O)NC(=O)[C@H](CCC(N)=O)NC1=O [Example 10, Leu-c(Cys-Asp-Pro-Lys-Gln-Lys-Trp-Ile-Gln-Cys)-NH2] (H-LCDPKQKWIQC-NH2; disulfide 2-11) | 102.2 |
| 8.15 | CC[C@H](C)[C@@H]1NC(=O)[C@H](Cc2c[nH]c3ccccc23)NC(=O)[C@H](CCCCN)NC(=O)[C@H](CCC(N)=O)NC(=O)[C@H](CCCCN)NC(=O)[C@@H](NC(=O)[C@@H]2CCCN2C(=O)[C@@H](N)CC(=O)O)CSSC[C@@H](C(N)=O)NC(=O)[C@H](CCC(N)=O)NC1=O [Example 40, Asp-Pro-c(Cys-Lys-Gln-Lys-Trp-Ile-Gln-Cys)-NH2] (H-DPCKQKWIQC-NH2; disulfide 3-10) | 113.5 |
| 7.52 | CC[C@@H](C)[C@H]1NC(=O)[C@@H](CCC(N)=O)NC(=O)[C@H](N)CSSC[C@H](C(=O)NCCCCCC(=O)O)NC(=O)[C@@H](CC(C)C)NC(=O)[C@@H](CC(=O)O)NC(=O)[C@H]2CCCN2C(=O)[C@@H](CCCCN)NC(=O)[C@@H](CCC(N)=O)NC(=O)[C@@H](CCCCN)NC(=O)[C@@H](Cc2c[nH]c3ccccc23)NC1=O [Example 143, c(D-Cys-D-Gln-D-Ile-D-Trp-D-Lys-D-Gln-D-Lys-D-Pro-D-Asp-D-Leu-D-Cys)-Ahx-OH] (H-[dC][dQ][dI][dW][dK][dQ][dK][dP][dD][dL][dC][Ahx]-OH; disulfide 1-11) | 103.5 |
| 7.00 | CC[C@@H](C)[C@H]1NC(=O)[C@@H](CCC(N)=O)NC(=O)[C@H](N)CSSC[C@H](C(=O)NCCCCCCCC(=O)O)NC(=O)[C@@H](CC(C)C)NC(=O)[C@@H](CC(=O)O)NC(=O)[C@H]2CCCN2C(=O)[C@@H](CCCCN)NC(=O)[C@@H](CCC(N)=O)NC(=O)[C@@H](CCCCN)NC(=O)[C@@H](Cc2c[nH]c3ccccc23)NC1=O [Example 139, c(D-Cys-D-Gln-D-Ile-D-Trp-D-Lys-D-Gln-D-Lys-D-Pro-D-Asp-D-Leu-D-Cys)-Aoc-OH] (H-[dC][dQ][dI][dW][dK][dQ][dK][dP][dD][dL][dC][Aoc]-OH; disulfide 1-11) | 47.0 |
| 6.48 | CC[C@H](C)[C@@H]1NC(=O)[C@H](Cc2c[nH]c3ccccc23)NC(=O)[C@H](CCCCN)NC(=O)[C@H](CCC(N)=O)NC(=O)[C@H](CCCCN)NC(=O)[C@@H]2CCCN2C(=O)[C@@H](NC(=O)[C@H](CC(=O)O)NC(=O)[C@@H](N)CC(C)C)CSSC[C@@H](C(N)=O)NC(=O)[C@H](CCC(N)=O)NC1=O [Example 11, Leu-Asp-c(Cys-Pro-Lys-Gln-Lys-Trp-Ile-Gln-Cys)-NH2] (H-LDCPKQKWIQC-NH2; disulfide 3-11) | 38.1 |
| < 6.00 | CC[C@H](C)[C@@H]1NC(=O)[C@H](Cc2c[nH]c3ccccc23)NC(=O)[C@H](CCCCN)NC(=O)[C@H](CCC(N)=O)NC(=O)[C@H](CCCCN)NC(=O)[C@@H](NC(=O)[C@@H]2CCCN2C(=O)[C@H](CC(=O)O)NC(=O)[C@@H](N)CC(C)C)CSSC[C@@H](C(N)=O)NC(=O)[C@H](CCC(N)=O)NC1=O [Example 38, Leu-Asp-Pro-c(Cys-Lys-Gln-Lys-Trp-Ile-Gln-Cys)-NH2] (H-LDPCKQKWIQC-NH2; disulfide 4-11) | −12 |
| 7.70 | CC[C@H](C)[C@@H]1NC(=O)[C@H](Cc2c[nH]c3ccccc23)NC(=O)[C@H](CCCCN)NC(=O)[C@H](CCC(N)=O)NC(=O)[C@H](CCCCN)NC(=O)[C@@H]2CCCN2C(=O)[C@H](CC(=O)O)NC(=O)[C@H](CC(C)C)NC(=O)[C@@H](NC(C)=O)CSSC[C@@H](C(=O)N[C@@H](CCN)C(N)=O)NC(=O)[C@H](CCC(N)=O)NC1=O [Example 18, Ac-c(Cys-Leu-Asp-Pro-Lys-Gln-Lys-Trp-Ile-Gln-Cys)-Dab-NH2] (Ac-CLDPKQKWIQC[Dab]-NH2; disulfide 1-11) | 103.5 |
